According to PubChem BioAssay (NCI):
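These data come from cells grown in 96-well plates and exposed to compound for 48 hours at five concentrations. GI50 marks 50% less growth. TGI is the concentration that stops growth completely.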

Tests used:
Assay in all cases: inhibition of tumour cell growth, NCI panel, 48 h
NCI-H226 lung = system: NCI-H226 lung
NCI-H23 lung = system: NCI-H23 lung
NCI-H460 lung = system: NCI-H460 lung
NCI-H522 lung = system: NCI-H522 lung
NCI/ADR-RES ovarian = system: NCI/ADR-RES ovarian
OVCAR-3 ovarian = system: OVCAR-3 ovarian
OVCAR-4 ovarian = system: OVCAR-4 ovarian
OVCAR-5 ovarian = system: OVCAR-5 ovarian
OVCAR-8 ovarian = system: OVCAR-8 ovarian
RXF 393 renal = system: RXF 393 renal
SF-268 CNS = system: SF-268 CNS
SF-539 CNS = system: SF-539 CNS
SK-MEL-2 melanoma = system: SK-MEL-2 melanoma
SK-MEL-28 melanoma = system: SK-MEL-28 melanoma
SK-MEL-5 melanoma = system: SK-MEL-5 melanoma
SK-OV-3 ovarian = system: SK-OV-3 ovarian
SN12C renal = system: SN12C renal
SNB-19 CNS = system: SNB-19 CNS
SNB-75 CNS = system: SNB-75 CNS
SR leukemia = system: SR leukemia
SW-620 colon = system: SW-620 colon
T-47D breast = system: T-47D breast
TK-10 renal = system: TK-10 renal
UACC-257 melanoma = system: UACC-257 melanoma
UACC-62 melanoma = system: UACC-62 melanoma
UO-31 renal = system: UO-31 renal

Molecule `CCOP(=O)(CCN1CCN(CCCCCOc2cc3c(cc2OC)C(=O)N2CCC[C@H]2C=N3)CC1)OCC` has a GI50 (NCI-H226 lung) of 17.1 µM, a TGI (NCI-H226 lung) of 65.5 µM and a GI50 (NCI-H23 lung) of 16.6 µM. It also gave a TGI (NCI-H23 lung) of 38.4 µM, a GI50 (NCI-H460 lung) of 6.14 µM and a TGI (NCI-H460 lung) of 46.1 µM. The GI50 (NCI-H522 lung) was 1930 nM, the TGI (NCI-H522 lung) was 7.8 µM and the GI50 (NCI/ADR-RES ovarian) was > 100 µM. For the same molecule, the TGI (NCI/ADR-RES ovarian) was > 100 µM, the GI50 (OVCAR-3 ovarian) was 7.48 µM and the TGI (OVCAR-3 ovarian) was 34.1 µM. The GI50 (OVCAR-4 ovarian) was 14.9 µM, the TGI (OVCAR-4 ovarian) was 57.1 µM and the GI50 (OVCAR-5 ovarian) was 27.7 µM. For the same molecule, the TGI (OVCAR-5 ovarian) was 76.6 µM, the GI50 (OVCAR-8 ovarian) was 31.2 µM and the TGI (OVCAR-8 ovarian) was > 100 µM. The GI50 (RXF 393 renal) was 1770 nM, the TGI (RXF 393 renal) was 6.59 µM and the GI50 (SF-268 CNS) was 3.53 µM. For the same molecule, the TGI (SF-268 CNS) was 49.6 µM, the GI50 (SF-539 CNS) was 3.6 µM and the TGI (SF-539 CNS) was 17.7 µM. It also gave a GI50 (SK-MEL-2 melanoma) of 12.5 µM, a TGI (SK-MEL-2 melanoma) of 32 µM and a GI50 (SK-MEL-28 melanoma) of 6.35 µM. The TGI (SK-MEL-28 melanoma) was 20.4 µM, the GI50 (SK-MEL-5 melanoma) was 3.62 µM and the TGI (SK-MEL-5 melanoma) was 23.8 µM. It also gave a GI50 (SK-OV-3 ovarian) of 23.9 µM, a TGI (SK-OV-3 ovarian) of 99.8 µM and a GI50 (SN12C renal) of 5.18 µM. The TGI (SN12C renal) was > 100 µM, the GI50 (SNB-19 CNS) was 5.65 µM and the TGI (SNB-19 CNS) was > 100 µM. It also gave a GI50 (SNB-75 CNS) of 1350 nM, a TGI (SNB-75 CNS) of 8.85 µM and a GI50 (SR leukemia) of 1390 nM. For the same molecule, the TGI (SR leukemia) was 4.25 µM, the GI50 (SW-620 colon) was 4.47 µM and the TGI (SW-620 colon) was 30.5 µM. The GI50 (T-47D breast) was 2440 nM, the TGI (T-47D breast) was 9.38 µM and the GI50 (TK-10 renal) was 22.8 µM. The TGI (TK-10 renal) was > 100 µM, the GI50 (UACC-257 melanoma) was 15.8 µM and the TGI (UACC-257 melanoma) was 37.4 µM. The GI50 (UACC-62 melanoma) was 7.86 µM, the TGI (UACC-62 melanoma) was 24.2 µM and the GI50 (UO-31 renal) was 17.7 µM. The TGI (UO-31 renal) was 44.8 µM.
